Patent US8613914B2, “Peptidomimetic sulfamide compounds and antiviral uses thereof” (Novartis AG, priority 2009, dated 2013)

Biological target: HCV NS3-4A serine protease (full-length NS3-4A protein) (Hepatitis C virus genotype 1a (isolate 1) (HCV), UniProt P26664)
Assay: HCV NS3-4A protease assay
Type: biochemical, HCV genotype 1a
Conditions: strain HCV-1, fluorogenic peptide substrate, read-out: Protease assay Ex. 12 IC50
Procedure: The inhibitory activity of certain compounds of Table A against HCV NS3-4A serine protease is determined in a homogenous assay using the full-length NS3-4A protein (genotype 1a, strain HCV-1) and a commercially available internally-quenched fluorogenic peptide substrate as described by Taliani, M., et al. 1996 Anal. Biochem. 240:60-67, which is incorporated by reference in its entirety.

Chain of HCV NS3-4A serine protease (full-length NS3-4A protein) (P26664 1027-1657): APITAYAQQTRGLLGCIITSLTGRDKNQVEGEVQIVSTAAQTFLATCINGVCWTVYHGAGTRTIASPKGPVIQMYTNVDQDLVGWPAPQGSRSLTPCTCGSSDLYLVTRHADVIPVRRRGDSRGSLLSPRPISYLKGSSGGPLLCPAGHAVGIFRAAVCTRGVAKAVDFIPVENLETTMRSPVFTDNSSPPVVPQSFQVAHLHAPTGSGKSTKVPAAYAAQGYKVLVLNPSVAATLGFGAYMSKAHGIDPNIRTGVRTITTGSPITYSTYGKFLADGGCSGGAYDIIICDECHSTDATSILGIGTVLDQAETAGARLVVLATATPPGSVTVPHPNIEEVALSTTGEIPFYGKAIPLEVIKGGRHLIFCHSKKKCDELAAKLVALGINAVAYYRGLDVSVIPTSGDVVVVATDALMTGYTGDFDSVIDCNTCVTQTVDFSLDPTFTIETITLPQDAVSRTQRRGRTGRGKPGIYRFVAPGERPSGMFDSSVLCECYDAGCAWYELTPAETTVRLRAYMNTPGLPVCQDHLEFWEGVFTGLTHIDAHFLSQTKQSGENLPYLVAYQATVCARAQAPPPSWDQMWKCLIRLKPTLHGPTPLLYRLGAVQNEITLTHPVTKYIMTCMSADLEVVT
Chain of HCV NS3-4A serine protease (full-length NS3-4A protein) (P26664 1658-1711 partner): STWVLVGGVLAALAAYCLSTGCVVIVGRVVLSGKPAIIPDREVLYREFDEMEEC

| Structure (SMILES) | IC50 [nM] |
| --- | --- |
| C=C[C@@H]1C[C@]1(NC(=O)[C@@H]1C[C@@]2(CN1C(=O)[C@@H](NC(=O)[C@@H](NC(=O)CN1CCc3ccccc3C1)C1CCCCC1)C(C)(C)C)C(C)(C)C21CCC1)C(=O)NS(=O)(=O)N1CCCC1 [Compound 177, (5R,8S)-7-[(2S)-2-({cyclohexyl[(3,4-dihydroisoquinolin-2(1H)-ylacetyl)amino]acetyl}amino)-3,3-dimethylbutanoyl]-10,10-dimethyl-N-{(1R,2S)-1-[(pyrrolidin-1-ylsulfonyl)carbamoyl]-2-vinylcyclopropyl}-7-azadispiro[3.0.4.1]decane-8-carboxamide] | 25 |
| C=C[C@@H]1C[C@]1(NC(=O)[C@@H]1C[C@@]2(CN1C(=O)[C@@H](NC(=O)[C@@H](NC(=O)c1cc3ccccc3n1C)C1CCCCC1)C(C)(C)C)C(C)(C)C21CCC1)C(=O)NS(=O)(=O)N1CCCC1 [Compound 178, (5R,8S)-7-{(2S)-2-[(cyclohexyl{[(1-methyl-1H-indol-2-yl)carbonyl]amino}acetyl)amino]-3,3-dimethylbutanoyl}-10,10-dimethyl-N-{(1R,2S)-1-[(pyrrolidin-1-ylsulfonyl)carbamoyl]-2-vinylcyclopropyl}-7-azadispiro[3.0.4.1]decane-8-carboxamide] | 80 |
| C=C[C@@H]1C[C@]1(NC(=O)[C@@H]1C[C@@]2(CN1C(=O)[C@@H](NC(=O)[C@@H](NC(=O)CC1CCCCO1)C1CCCCC1)C(C)(C)C)C(C)(C)C21CCC1)C(=O)NS(=O)(=O)N1CCCC1 (stereo partly drawn) [Compound 179, (5R,8S)-7-[(2S)-2-({cyclohexyl[(tetrahydro-2H-pyran-2-ylacetyl)amino]acetyl}amino)-3,3-dimethylbutanoyl]-10,10-dimethyl-N-{(1R,2S)-1-[(pyrrolidin-1-ylsulfonyl)carbamoyl]-2-vinylcyclopropyl}-7-azadispiro[3.0.4.1]decane-8-carboxamide] | 25 |
| C=C[C@@H]1C[C@]1(NC(=O)[C@@H]1C[C@@]2(CN1C(=O)[C@@H](NC(=O)[C@@H](NC(=O)c1cc(C)nn1CC)C1CCCCC1)C(C)(C)C)C(C)(C)C21CCC1)C(=O)NS(=O)(=O)N1CCCC1 [Compound 180, (5R,8S)-7-{(2S)-2-[(cyclohexyl{[(1-ethyl-3-methyl-1H-pyrazol-5-yl)carbonyl]amino}acetyl)amino]-3,3-dimethylbutanoyl}-10,10-dimethyl-N-{(1R,2S)-1-[(pyrrolidin-1-ylsulfonyl)carbamoyl]-2-vinylcyclopropyl}-7-azadispiro[3.0.4.1]decane-8-carboxamide] | 30 |
| C=C[C@@H]1C[C@]1(NC(=O)[C@@H]1C[C@@]2(CN1C(=O)[C@@H](NC(=O)[C@@H](NC(=O)c1cc(C(C)(C)C)nn1C)C1CCCCC1)C(C)(C)C)C(C)(C)C21CCC1)C(=O)NS(=O)(=O)N1CCCC1 [Compound 181, (5R,8S)-7-[(2S)-2-{[{[(3-tert-butyl-1-methyl-1H-pyrazol-5-yl)carbonyl]amino}(cyclohexyl)acetyl]amino}-3,3-dimethylbutanoyl]-10,10-dimethyl-N-{(1R,2S)-1-[(pyrrolidin-1-ylsulfonyl)carbamoyl]-2-vinylcyclopropyl}-7-azadispiro[3.0.4.1]decane-8-carboxamide] | 90 |
| C=C[C@@H]1C[C@]1(NC(=O)[C@@H]1C[C@@]2(CN1C(=O)[C@@H](NC(=O)[C@@H](NC(=O)c1ccccc1NC)C1CCCCC1)C(C)(C)C)C(C)(C)C21CCC1)C(=O)NS(=O)(=O)N1CCCC1 [Compound 182, (5R,8S)-7-{(2S)-2-[(cyclohexyl{[2-(methylamino)benzoyl]amino}acetyl)amino]-3,3-dimethylbutanoyl}-10,10-dimethyl-N-{(1R,2S)-1-[(pyrrolidin-1-ylsulfonyl)carbamoyl]-2-vinylcyclopropyl}-7-azadispiro[3.0.4.1]decane-8-carboxamide] | 70 |
| C=C[C@@H]1C[C@]1(NC(=O)[C@@H]1C[C@@]2(CN1C(=O)[C@@H](NC(=O)[C@@H](NC(=O)c1cc(C)nn1C(C)(C)C)C1CCCCC1)C(C)(C)C)C(C)(C)C21CCC1)C(=O)NS(=O)(=O)N1CCCC1 [Compound 183, (5R,8S)-7-[(2S)-2-{[{[(1-tert-butyl-3-methyl-1H-pyrazol-5-yl)carbonyl]amino}(cyclohexyl)acetyl]amino}-3,3-dimethylbutanoyl]-10,10-dimethyl-N-{(1R,2S)-1-[(pyrrolidin-1-ylsulfonyl)carbamoyl]-2-vinylcyclopropyl}-7-azadispiro[3.0.4.1]decane-8-carboxamide] | 95 |
| C=C[C@@H]1C[C@]1(NC(=O)[C@@H]1C[C@@]2(CN1C(=O)[C@@H](NC(=O)[C@@H](NC(=O)c1cnn(-c3ccccc3)c1)C1CCCCC1)C(C)(C)C)C(C)(C)C21CCC1)C(=O)NS(=O)(=O)N1CCCC1 [Compound 184, (5R,8S)-7-{(2S)-2-[(cyclohexyl{[(1-phenyl-1H-pyrazol-4-yl)carbonyl]amino}acetyl)amino]-3,3-dimethylbutanoyl}-10,10-dimethyl-N-{(1R,2S)-1-[(pyrrolidin-1-ylsulfonyl)carbamoyl]-2-vinylcyclopropyl}-7-azadispiro[3.0.4.1]decane-8-carboxamide] | 35 |
| C=C[C@@H]1C[C@]1(NC(=O)[C@@H]1C[C@@]2(CN1C(=O)[C@@H](NC(=O)[C@@H](NC(=O)c1cc(CC)nn1C)C1CCCCC1)C(C)(C)C)C(C)(C)C21CCC1)C(=O)NS(=O)(=O)N1CCCC1 [Compound 185, (5R,8S)-7-{(2S)-2-[(cyclohexyl{[(3-ethyl-1-methyl-1H-pyrazol-5-yl)carbonyl]amino}acetyl)amino]-3,3-dimethylbutanoyl}-10,10-dimethyl-N-{(1R,2S)-1-[(pyrrolidin-1-ylsulfonyl)carbamoyl]-2-vinylcyclopropyl}-7-azadispiro[3.0.4.1]decane-8-carboxamide] | 40 |
| C=C[C@@H]1C[C@]1(NC(=O)[C@@H]1C[C@@]2(CN1C(=O)[C@@H](NC(=O)[C@@H](NC(=O)Cn1nc(C)cc1C)C1CCCCC1)C(C)(C)C)C(C)(C)C21CCC1)C(=O)NS(=O)(=O)N1CCCC1 [Compound 186, (5R,8S)-7-{(2S)-2-[(cyclohexyl{[(3,5-dimethyl-1H-pyrazol-1-yl)acetyl]amino}acetyl)amino]-3,3-dimethylbutanoyl}-10,10-dimethyl-N-{(1R,2S)-1-[(pyrrolidin-1-ylsulfonyl)carbamoyl]-2-vinylcyclopropyl}-7-azadispiro[3.0.4.1]decane-8-carboxamide] | 65 |
| C=C[C@@H]1C[C@]1(NC(=O)[C@@H]1C[C@@]2(CN1C(=O)[C@@H](NC(=O)[C@@H](NC(=O)[C@@H]1CCCN1C(C)=O)C1CCCCC1)C(C)(C)C)C(C)(C)C21CCC1)C(=O)NS(=O)(=O)N1CCCC1 [Compound 187, (5R,8S)-7-[(2S)-2-{[({[(2S)-1-acetylpyrrolidin-2-yl]carbonyl}amino)(cyclohexyl)acetyl]amino}-3,3-dimethylbutanoyl]-10,10-dimethyl-N-{(1R,2S)-1-[(pyrrolidin-1-ylsulfonyl)carbamoyl]-2-vinylcyclopropyl}-7-azadispiro[3.0.4.1]decane-8-carboxamide] | 25 |
